Reference: ChEMBL document CHEMBL4406840, “Design and synthesis of novel artemisinin derivatives with potent activities against colorectal cancer in vitro and in vivo” (Eur J Med Chem, 2019)
The source made the active and inactive calls. The rule behind the calls is not given here.

Key:
WM 266-4 = assay: cells; assay type: functional, cell-based; conditions: Homo sapiens, WM 266-4, 48 h
Description: Antiproliferative activity against human WM266.4 cells assessed as inhibition of cell viability after 48 hrs by MTS assay

HCT-116 [1] = assay: cells; assay type: functional, cell-based; conditions: Homo sapiens, HCT-116, 48 h
Description: Antiproliferative activity against human HCT116 cells assessed as inhibition of cell viability after 48 hrs by MTS assay

HCT-116 [2] = assay: Potency index, ratio of dihydroartemisinin IC50 to compound IC50 for antiproliferative activity against human HCT116 cells by MTS assay; assay type: functional
HCT-116 [3] = conditions: Homo sapiens, at 10 mg/kg
Description: Antitumour activity against human HCT116 cells xenografted in BALB/c nude mouse assessed as reduction in tumour growth at 10 mg/kg, ip administered daily for 18 days started from 2 days after tumor cell inoculation by digital caliper method

[4] = Toxicity in BALB/c nude mouse xenografted with human HCT116 cells assessed as effect on body weight at 2.5 to 5 mg/kg, ip administered daily for 18 days; assay type: organism-based; conditions: in vivo, 432 h
HCT-116 [5] = assay: Antitumour activity against human HCT116 cells xenografted in BALB/c nude mouse assessed as tumour shrunken at 2.5 to 5 mg/kg, ip administered daily for 18 days started from 2 days after tumor cell inoculation by digital caliper method; assay type: functional, organism-based
HCT-116 [6] = assay: Antitumour activity against human HCT116 cells xenografted in BALB/c nude mouse assessed as delay in tumour growth at 2.5 to 5 mg/kg, ip administered daily for 18 days started from 2 days after tumor cell inoculation by digital caliper method; assay type: functional, organism-based

Compound | IC50 (WM 266-4) [µM] | IC50 (HCT-116 [1]) [µM] | also measured
C[C@H]1[C@@H](OCCCCCOc2ccc3ncnc(Nc4ccc(F)c(Cl)c4)c3c2)O[C@@H]2O[C@@]3(C)CC[C@H]4[C@H](C)CC[C@@H]1[C@@]24OO3 | 2.91 | 0.24 | Ratio IC50 (HCT-116 [2]): 10
C[C@H]1[C@H](OC[C@H](N)c2ccccc2)O[C@@H]2O[C@@]3(C)CC[C@H]4[C@H](C)CC[C@@H]1[C@@]24OO3 | 15.1 | 16.2 | 
CC(=O)N(c1ccc(F)c(Cl)c1)c1ncnc2ccc(COC(=O)CCCC(=O)N[C@@H]3O[C@@H]4O[C@@]5(C)CC[C@H]6[C@H](C)CC[C@@H]([C@H]3C)[C@@]46OO5)cc12 | 5.08 | 5.35 | 
CC(=O)N(c1ccc(F)c(Cl)c1)c1ncnc2ccc(COC(=O)CCC(=O)O[C@@H]3O[C@@H]4O[C@@]5(C)CC[C@H]6[C@H](C)CC[C@@H]([C@H]3C)[C@@]46OO5)cc12 | 9.29 | 0.28 | 
CC(=O)N(c1ccc(F)c(Cl)c1)c1ncnc2ccc(COC(=O)CCCCC(=O)O[C@@H]3O[C@@H]4O[C@@]5(C)CC[C@H]6[C@H](C)CC[C@@H]([C@H]3C)[C@@]46OO5)cc12 | 18.8 | 0.66 | 
C[C@H]1[C@H](NC(=O)CCCC(=O)OCc2ccc3ncnc(Nc4ccc(F)c(Cl)c4)c3c2)O[C@@H]2O[C@@]3(C)CC[C@H]4[C@H](C)CC[C@@H]1[C@@]24OO3 | 15.3 | 5.56 | 
CC(=O)O[C@H]1C(=O)[C@@]2(C)[C@H]([C@H](OC(=O)c3ccccc3)[C@]3(O)C[C@H](OC(=O)[C@H](O)[C@@H](NC(=O)c4ccccc4)c4ccccc4)C(C)=C1C3(C)C)[C@]1(OC(C)=O)CO[C@@H]1C[C@@H]2O [PACLITAXEL] | 0.00032 |  | 
C[C@H]1[C@H](NC(=O)CCCCC(=O)OCc2ccc3ncnc(Nc4ccc(F)c(Cl)c4)c3c2)O[C@@H]2O[C@@]3(C)CC[C@H]4[C@H](C)CC[C@@H]1[C@@]24OO3 | 25.3 | 5.68 | 
C[C@H]1[C@H](OC(=O)CCC(=O)OCc2ccc3ncnc(Nc4ccc(F)c(Cl)c4)c3c2)O[C@@H]2O[C@@]3(C)CC[C@H]4[C@H](C)CC[C@@H]1[C@@]24OO3 | 10.2 | 0.18 | 
C[C@H]1[C@@H](OCCCOCc2ccc3ncnc(Nc4ccc(F)c(Cl)c4)c3c2)O[C@@H]2O[C@@]3(C)CC[C@H]4[C@H](C)CC[C@@H]1[C@@]24OO3 | 5.18 | 2.11 | 
C[C@H]1[C@@H](OCCCCOCc2ccc3ncnc(Nc4ccc(F)c(Cl)c4)c3c2)O[C@@H]2O[C@@]3(C)CC[C@H]4[C@H](C)CC[C@@H]1[C@@]24OO3 | 3.81 | 0.36 | 
C[C@H]1[C@H](OCCCCOCc2ccc3ncnc(Nc4ccc(F)c(Cl)c4)c3c2)O[C@@H]2O[C@@]3(C)CC[C@H]4[C@H](C)CC[C@@H]1[C@@]24OO3 | 12.6 | 2.42 | 
C[C@@H]1CC[C@H]2[C@@H](C)C(O[C@@H](C(=O)OCc3ccc4ncnc(Nc5ccc(F)c(Cl)c5)c4c3)c3ccccc3)O[C@@H]3O[C@@]4(C)CC[C@@H]1[C@]32OO4 (stereo partly drawn) |  | 0.68 | 
C[C@H]1[C@H](OCc2ccc3ncnc(Nc4ccc(F)c(Cl)c4)c3c2)O[C@@H]2O[C@@]3(C)CC[C@H]4[C@H](C)CC[C@@H]1[C@@]24OO3 | 4.56 | 0.42 | 
C[C@H]1[C@H](OC(=O)CCCC(=O)OCc2ccc3ncnc(Nc4ccc(F)c(Cl)c4)c3c2)O[C@@H]2O[C@@]3(C)CC[C@H]4[C@H](C)CC[C@@H]1[C@@]24OO3 | 11.4 | 0.29 | 
CC(=O)N(c1ccc(F)c(Cl)c1)c1ncnc2ccc(COC(=O)CCC(=O)N[C@@H]3O[C@@H]4O[C@@]5(C)CC[C@H]6[C@H](C)CC[C@@H]([C@H]3C)[C@@]46OO5)cc12 | 15.4 | 12.9 | 
C[C@H]1[C@H](O)O[C@@H]2O[C@@]3(C)CC[C@H]4[C@H](C)CC[C@@H]1[C@@]24OO3 | > 40 | 2.85 | inhibition (HCT-116 [3]): Active
C[C@H]1[C@@H](OCc2ccc3ncnc(Nc4ccc(F)c(Cl)c4)c3c2)O[C@@H]2O[C@@]3(C)CC[C@H]4[C@H](C)CC[C@@H]1[C@@]24OO3 | 10.8 | 0.29 | 
C[C@H]1[C@H](NC(=O)CCC(=O)OCc2ccc3ncnc(Nc4ccc(F)c(Cl)c4)c3c2)O[C@@H]2O[C@@]3(C)CC[C@H]4[C@H](C)CC[C@@H]1[C@@]24OO3 | 9.88 | 2.78 | 
O=C(O)c1ccc2ncnc(Nc3ccc(F)c(Cl)c3)c2c1 | > 40 | > 40 | 
C[C@H]1[C@H](OC(=O)CCC(=O)O)O[C@@H]2O[C@@]3(C)CC[C@H]4[C@H](C)CC[C@@H]1[C@@]24OO3 [ARTESUNATE] | 8.46 | 0.89 | 
CC(=O)N(c1ccc(F)c(Cl)c1)c1ncnc2ccc(COC(=O)CCCCC(=O)N[C@@H]3O[C@@H]4O[C@@]5(C)CC[C@H]6[C@H](C)CC[C@@H]([C@H]3C)[C@@]46OO5)cc12 | 27.8 | 11.8 | 
C[C@H]1[C@H](OCCCOCc2ccc3ncnc(Nc4ccc(F)c(Cl)c4)c3c2)O[C@@H]2O[C@@]3(C)CC[C@H]4[C@H](C)CC[C@@H]1[C@@]24OO3 | 15.8 | 6.54 | 
CC(=O)N(c1ccc(F)c(Cl)c1)c1ncnc2ccc(COC(=O)CCCC(=O)O[C@@H]3O[C@@H]4O[C@@]5(C)CC[C@H]6[C@H](C)CC[C@@H]([C@H]3C)[C@@]46OO5)cc12 | 15 | 0.78 | 
C[C@H]1[C@H](OCCCCCOc2ccc3ncnc(Nc4ccc(F)c(Cl)c4)c3c2)O[C@@H]2O[C@@]3(C)CC[C@H]4[C@H](C)CC[C@@H]1[C@@]24OO3 | 5.7 | 0.35 | 
C[C@H]1[C@H](OC(=O)CCCCC(=O)OCc2ccc3ncnc(Nc4ccc(F)c(Cl)c4)c3c2)O[C@@H]2O[C@@]3(C)CC[C@H]4[C@H](C)CC[C@@H]1[C@@]24OO3 | 3.51 | 0.31 | 
C[C@H]1[C@H](OC[C@H](NC(=O)c2ccc3ncnc(Nc4ccc(F)c(Cl)c4)c3c2)c2ccccc2)O[C@@H]2O[C@@]3(C)CC[C@H]4[C@H](C)CC[C@@H]1[C@@]24OO3 | 6.67 | 0.11 | Activity [4]: Non-Toxic; Activity (HCT-116 [5]): Active; inhibition (HCT-116 [6]): Active
C[C@@H]1CC[C@H]2[C@@H](C)C(O[C@H](C(=O)OCc3ccc4ncnc(Nc5ccc(F)c(Cl)c5)c4c3)c3ccccc3)O[C@@H]3O[C@@]4(C)CC[C@@H]1[C@]32OO4 (stereo partly drawn) |  | 0.89 | 
